Test results reported in patent publication US8247211B2, “Glycopeptide antibiotics” (American Cyanamid Company, priority 2001, dated 2012).

Columns and labels:
Assay in all cases: In vitro antibacterial evaluation: minimum inhibitory concentration (MIC), broth dilution method
Assay type in all cases: cell-based
Conditions in all cases: 18 hours at 35° C.
Enterococcus sp. = tested on: Enterococcus sp.
Method in brief: (§1)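 Inoculum: 5×10^5 CFU/mL. Range: 64-0.06 μg/mL. Medium: Muller-Hinton II […]; NCCLS M7-A2 broth dilution. Endpoint: lowest concentration inhibiting growth. Strains include methicillin-, penicillin- and/or vancomycin-resistant clinical isolates.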

Escherichia coli = tested on: Escherichia coli
Method in brief: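 First, organisms are seeded at 5×10^5 CFU/mL into Muller-Hinton II […]. Next, antibiotic is applied across 64-0.06 μg/mL by broth dilution (NCCLS M7-A2). Finally, the lowest inhibitory concentration is recorded as MIC.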

Staphylococcus sp. = tested on: Staphylococcus sp.
Method in brief: as §1

Streptococcus sp. = tested on: Streptococcus sp.
Method in brief: as §1

[1] = Enterococcus faecalis (ATCC 29212)
[2] = Enterococcus faecalis (GC 2242)
[3] = Enterococcus faecalis (GC 4552)
[4] = Enterococcus faecalis (GC 4553)
[5] = Enterococcus faecalis (GC 4554)
[6] = Coagulase Negative Staphylococcus (GC 4547)
[7] = Coagulase Negative Staphylococcus (GC 4548)
[8] = Coagulase Negative Staphylococcus (GC 4549)
[9] = Coagulase Negative Staphylococcus (GC 4551)
[10] = Staphylococcus aureus (ATCC 29213)
[11] = Staphylococcus aureus (GC 1131)
[12] = Staphylococcus aureus (GC 4541)
[13] = Staphylococcus aureus (GC 4542)
[14] = Staphylococcus aureus (GC 4544)
[15] = Staphylococcus aureus (GC 4545)
[16] = Staphylococcus aureus-SMITH (GC 4543)
[17] = Staphylococcus haemolyticus (GC 4546)
[18] = Streptococcus agalactiae (GC 4564)
[19] = Streptococcus pneumoniae (GC 4565)

Tri-N-[(phenylmethoxy)carbonyl]-cyclo[glycyl-β-methylphenylalanyltyrosyl-3-(2-iminoimidazolidin-4-yl)seryl-3-β-(2,3:4,6-di-O-isopropylidenehexopyranosyl)-2-iminoimidazolidin-4-yl]seryl-O-(tert-butyldimethylsilyl)seryl] [Example 249]
MIC Enterococcus avium (GC 4558) (Enterococcus sp.; Enterococcus avium (GC 4558)): 32 µg/mL | MIC Enterococcus faecalis (ATCC 29212) (Enterococcus sp.; [1]): 16 µg/mL | MIC Enterococcus faecalis (GC 2242) (Enterococcus sp.; [2]): 32 µg/mL | MIC Enterococcus faecalis (GC 2691) (Enterococcus sp.; Enterococcus faecalis (GC 2691)): 128 µg/mL | MIC Enterococcus faecalis (GC 3059) (Enterococcus sp.; Enterococcus faecalis (GC 3059)): 128 µg/mL | MIC Enterococcus faecalis (GC 4552) (Enterococcus sp.; [3]): 64 µg/mL | MIC Enterococcus faecalis (GC 4553) (Enterococcus sp.; [4]): 64 µg/mL | MIC Enterococcus faecalis (GC 4554) (Enterococcus sp.; [5]): 128 µg/mL | MIC Enterococcus faecalis (GC 6189) (Enterococcus sp.; Enterococcus faecalis (GC 6189)): 64 µg/mL | MIC Enterococcus faecium (GC 2243) (Enterococcus sp.; Enterococcus faecium (GC 2243)): 64 µg/mL | MIC Enterococcus faecium (GC 4556) (Enterococcus sp.; Enterococcus faecium (GC 4556)): 32 µg/mL | MIC Enterococcus faecium (GC 4557) (Enterococcus sp.; Enterococcus faecium (GC 4557)): 64 µg/mL | MIC Enterococcus faecalis (ATCC 29212) (Enterococcus sp.; broth dilution, strain ATCC 29212): 16 µg/mL | MIC Enterococcus faecalis (GC 2242) (Enterococcus sp.; broth dilution, strain GC 2242): 32 µg/mL | MIC Enterococcus faecium (GC 2243) (Enterococcus sp.; broth dilution, strain GC 2243): 64 µg/mL | MIC Enterococcus faecalis (GC 2691) (Enterococcus sp.; broth dilution, strain GC 2691): 128 µg/mL | MIC Enterococcus faecalis (GC 3059) (Enterococcus sp.; broth dilution, strain GC 3059): 128 µg/mL | MIC Enterococcus faecalis (GC 4552) (Enterococcus sp.; broth dilution, strain GC 4552): 64 µg/mL | MIC Enterococcus faecalis (GC 4553) (Enterococcus sp.; broth dilution, strain GC 4553): 64 µg/mL | MIC Enterococcus faecalis (GC 4554) (Enterococcus sp.; broth dilution, strain GC 4554): 128 µg/mL | MIC Enterococcus faecium (GC 4556) (Enterococcus sp.; broth dilution, strain GC 4556): 32 µg/mL | MIC Enterococcus faecium (GC 4557) (Enterococcus sp.; broth dilution, strain GC 4557): 64 µg/mL | MIC Enterococcus avium (GC 4558) (Enterococcus sp.; broth dilution, strain GC 4558): 32 µg/mL | MIC Enterococcus faecalis (GC 6189) (Enterococcus sp.; broth dilution, strain GC 6189): 64 µg/mL | MIC Escherichia coli (ATCC 25922) (Escherichia coli): 128 µg/mL | MIC Escherichia coli (GC 4559) (Escherichia coli; Escherichia coli (GC 4559)): 128 µg/mL | MIC Escherichia coli (GC 4560) (Escherichia coli; Escherichia coli (GC 4560)): 128 µg/mL | MIC Coagulase Negative Staphylococcus (GC 4547) (Staphylococcus sp.; [6]): 64 µg/mL | MIC Coagulase Negative Staphylococcus (GC 4548) (Staphylococcus sp.; [7]): 128 µg/mL | MIC Coagulase Negative Staphylococcus (GC 4549) (Staphylococcus sp.; [8]): 128 µg/mL | MIC Coagulase Negative Staphylococcus (GC 4551) (Staphylococcus sp.; [9]): 64 µg/mL | MIC Coagulase Negative Staphylococcus (GC 6257) (Staphylococcus sp.; Coagulase Negative Staphylococcus (GC 6257)): 128 µg/mL | MIC Staphylococcus aureus (ATCC 29213) (Staphylococcus sp.; [10]): 128 µg/mL | MIC Staphylococcus aureus (GC 1131) (Staphylococcus sp.; [11]): 128 µg/mL | MIC Staphylococcus aureus (GC 3051) (Staphylococcus sp.; Staphylococcus aureus (GC 3051)): 128 µg/mL | MIC Staphylococcus aureus (GC 3053) (Staphylococcus sp.; Staphylococcus aureus (GC 3053)): 128 µg/mL | MIC Staphylococcus aureus (GC 4541) (Staphylococcus sp.; [12]): 128 µg/mL | MIC Staphylococcus aureus (GC 4542) (Staphylococcus sp.; [13]): 64 µg/mL | MIC Staphylococcus aureus (GC 4544) (Staphylococcus sp.; [14]): 64 µg/mL | MIC Staphylococcus aureus (GC 4545) (Staphylococcus sp.; [15]): 128 µg/mL | MIC Staphylococcus aureus-SMITH (GC 4543) (Staphylococcus sp.; [16]): 128 µg/mL | MIC Staphylococcus haemolyticus (GC 4546) (Staphylococcus sp.; [17]): 128 µg/mL | MIC Staphylococcus aureus (ATCC 29213) (Staphylococcus sp.; broth dilution, strain ATCC 29213): 128 µg/mL | MIC Staphylococcus aureus (GC 1131) (Staphylococcus sp.; broth dilution, strain GC 1131): 128 µg/mL | MIC Staphylococcus aureus (GC 3051) (Staphylococcus sp.; broth dilution, strain GC 3051): 128 µg/mL | MIC Staphylococcus aureus (GC 3053) (Staphylococcus sp.; broth dilution, strain GC 3053): 128 µg/mL | MIC Staphylococcus aureus (GC 4541) (Staphylococcus sp.; broth dilution, strain GC 4541): 128 µg/mL | MIC Staphylococcus aureus (GC 4542) (Staphylococcus sp.; broth dilution, strain GC 4542): 64 µg/mL | MIC Staphylococcus aureus-SMITH (GC 4543) (Staphylococcus sp.; broth dilution, strain GC 4543): 128 µg/mL | MIC Staphylococcus aureus (GC 4544) (Staphylococcus sp.; broth dilution, strain GC 4544): 64 µg/mL | MIC Staphylococcus aureus (GC 4545) (Staphylococcus sp.; broth dilution, strain GC 4545): 128 µg/mL | MIC Staphylococcus haemolyticus (GC 4546) (Staphylococcus sp.; broth dilution, strain GC 4546): 128 µg/mL | MIC Coagulase Negative Staphylococcus (GC 4547) (Staphylococcus sp.; broth dilution, strain GC 4547): 64 µg/mL | MIC Coagulase Negative Staphylococcus (GC 4548) (Staphylococcus sp.; broth dilution, strain GC 4548): 128 µg/mL | MIC Coagulase Negative Staphylococcus (GC 4549) (Staphylococcus sp.; broth dilution, strain GC 4549): 128 µg/mL | MIC Coagulase Negative Staphylococcus (GC 4551) (Staphylococcus sp.; broth dilution, strain GC 4551): 64 µg/mL | MIC Coagulase Negative Staphylococcus (GC 6257) (Staphylococcus sp.; broth dilution, strain GC 6257): 128 µg/mL | MIC Streptococcus agalactiae (GC 4564) (Streptococcus sp.; [18]): 128 µg/mL | MIC Streptococcus pneumoniae (ATCC 6301) (Streptococcus sp.; Streptococcus pneumoniae (ATCC 6301)): 64 µg/mL | MIC Streptococcus pneumoniae (GC 1894) (Streptococcus sp.; Streptococcus pneumoniae (GC 1894)): 32 µg/mL | MIC Streptococcus pneumoniae (GC 4565) (Streptococcus sp.; [19]): 64 µg/mL | MIC Streptococcus pyogenes (GC 4563) (Streptococcus sp.; Streptococcus pyogenes (GC 4563)): 128 µg/mL | MIC Streptococcus pneumoniae (ATCC 6301) (Streptococcus sp.; broth dilution, strain ATCC 6301): 64 µg/mL | MIC Streptococcus pneumoniae (GC 1894) (Streptococcus sp.; broth dilution, strain GC 1894): 32 µg/mL | MIC Streptococcus pyogenes (GC 4563) (Streptococcus sp.; broth dilution, strain GC 4563): 128 µg/mL | MIC Streptococcus agalactiae (GC 4564) (Streptococcus sp.; broth dilution, strain GC 4564): 128 µg/mL | MIC Streptococcus pneumoniae (GC 4565) (Streptococcus sp.; broth dilution, strain GC 4565): 64 µg/mL

α-O-[(Butylamino)carbonyl]-cyclo[glycyl-β-methylphenylalanyl-O-(4-O-hexopyranosylhexopyranosyl)tyrosyl-3-(2-iminoimidazolidin-4-yl)seryl-3-(3-hexopyranosyl-2-iminoimidazolidin-4-yl)serylseryl] [Example 252]
MIC Enterococcus avium (GC 4558) (Enterococcus sp.; Enterococcus avium (GC 4558)): >64 µg/mL | MIC Enterococcus faecalis (ATCC 29212) (Enterococcus sp.; [1]): >64 µg/mL | MIC Enterococcus faecalis (GC 2242) (Enterococcus sp.; [2]): >64 µg/mL | MIC Enterococcus faecalis (GC 4552) (Enterococcus sp.; [3]): >64 µg/mL | MIC Enterococcus faecalis (GC 4553) (Enterococcus sp.; [4]): >64 µg/mL | MIC Enterococcus faecalis (GC 4554) (Enterococcus sp.; [5]): >64 µg/mL | MIC Enterococcus faecium (GC 2243) (Enterococcus sp.; Enterococcus faecium (GC 2243)): >64 µg/mL | MIC Enterococcus faecium (GC 4556) (Enterococcus sp.; Enterococcus faecium (GC 4556)): >64 µg/mL | MIC Enterococcus faecium (GC 4557) (Enterococcus sp.; Enterococcus faecium (GC 4557)): >64 µg/mL | MIC Escherichia coli (ATCC 25922) (Escherichia coli): >64 µg/mL | MIC Coagulase Negative Staphylococcus (GC 4547) (Staphylococcus sp.; [6]): >64 µg/mL | MIC Coagulase Negative Staphylococcus (GC 4548) (Staphylococcus sp.; [7]): >64 µg/mL | MIC Coagulase Negative Staphylococcus (GC 4549) (Staphylococcus sp.; [8]): >64 µg/mL | MIC Coagulase Negative Staphylococcus (GC 4551) (Staphylococcus sp.; [9]): >64 µg/mL | MIC Coagulase Negative Staphylococcus (ID-3941) (Staphylococcus sp.; Coagulase Negative Staphylococcus (ID-3941)): >64 µg/mL | MIC Staphylococcus aureus (ATCC 29213) (Staphylococcus sp.; [10]): >64 µg/mL | MIC Staphylococcus aureus (GC 1131) (Staphylococcus sp.; [11]): >64 µg/mL | MIC Staphylococcus aureus (GC 4541) (Staphylococcus sp.; [12]): >64 µg/mL | MIC Staphylococcus aureus (GC 4542) (Staphylococcus sp.; [13]): >64 µg/mL | MIC Staphylococcus aureus (GC 4544) (Staphylococcus sp.; [14]): >64 µg/mL | MIC Staphylococcus aureus (GC 4545) (Staphylococcus sp.; [15]): >64 µg/mL | MIC Staphylococcus aureus-SMITH (GC 4543) (Staphylococcus sp.; [16]): >64 µg/mL | MIC Staphylococcus haemolyticus (GC 4546) (Staphylococcus sp.; [17]): >64 µg/mL | MIC Streptococcus agalactiae (GC 4564) (Streptococcus sp.; [18]): >64 µg/mL | MIC Streptococcus pneumoniae (GC 4565) (Streptococcus sp.; [19]): >64 µg/mL | MIC Streptococcus pyogenes (ID-3187) (Streptococcus sp.; Streptococcus pyogenes (ID-3187)): >64 µg/mL
